The results in this text go back to US20100092385A1, “Novel Heteroaryl Substituted Imidazo [1,2-A] Pyridine Derivatives” (ASTRAZENECA AB, priority 2007, published 2010).

Molecules are shown by their SMILES.

As usually defined, the IC50 is the point on the concentration scale where inhibition reaches its midpoint.

In the assay the target is T1, synthetic Aβ 1-40 (Homo sapiens, UniProt P05067).
T1 construct: using synthetic Aβ 1-40 in 2.7 nM of [^3H]PIB
T1 sequence (P05067 672-711 limits assumed): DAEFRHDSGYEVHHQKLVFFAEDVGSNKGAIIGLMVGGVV
Description: Competition binding assay. Particulars: [3H]PIB as radioligand (2.7 nM), synthetic Aβ 1-40, phosphate buffer pH 7.5, 30 min room temperature; read-out: IC50 in the competion binding assay. The method, then: Competition binding was performed in 384-well FB filter plates using synthetic Aβ 1-40 in 2.7 nM of [^3H]PIB (or another ^3H-labeled radioligand when so mentioned) in phosphate buffer at pH 7.5, by adding various concentrations of non-radioactive compounds originally dissolved in DMSO. The binding mixture was incubated for 30 min at room temperature, followed by vacuum filtration, and subsequently by washing twice with 1% Triton-X100. Scintillation fluid was thereafter added to the collected Aβ 1-40 on the filter plate, and the activity of the bound remaining radioligand ([^3H]PIB or another ^3H-labeled radioligand) was measured using 1450 Microbeta from PerkinElmer. Specific binding was determined according to the competion binding assay described herein. The determined IC50's in the competion binding assays (using [^3H]PIB as radioligand) of […] of the present invention are shown in Table 1.
Turning to `CNc1ccc(-c2cn3cc(OC)ccc3n2)cn1` [Example 1, 5-(6-Methoxyimidazo[1,2-a]pyridin-2-yl)-N-methylpyridin-2-amine], the IC50 turned out to be 2470 nM.

For `CNc1ccc(-c2cn3cc(O)ccc3n2)cn1` [Example 2, 2-[6-(Methylamino)pyridin-3-yl]imidazo[1,2-a]pyridin-6-ol], the 50% inhibitory concentration (IC50) was 375 nM.

Regarding `COc1ccc2nc(-c3ccc(N(C)C)nc3)cn2c1` [Example 3, 5-(6-Methoxyimidazo[1,2-a]pyridin-2-yl)-N,N-dimethylpyridin-2-amine], the IC50 turned out to be 386 nM.

`CN(C)c1ccc(-c2cn3cc(O)ccc3n2)cn1` [Example 4, 2-[6-(Dimethylamino)pyridin-3-yl]imidazo[1,2-a]pyridin-6-ol]: the IC50 was 126 nM.

With `COc1ccc2nc(-c3ccc(OC)nc3)cn2c1` [Example 5, 6-Methoxy-2-(6-methoxypyridin-3-yl)imidazo[1,2-a]pyridine], the IC50 was determined as 2840 nM.

Regarding `COc1ccc2nc(-c3cnc(OC)c(F)c3)cn2c1` [Example 6, 2-(5-Fluoro-6-methoxypyridin-3-yl)-6-methoxyimidazo[1,2-a]pyridine], the IC50 stood at 838 nM.

Regarding `COc1ccc2nc(-c3cnc(OC)c(Cl)c3)cn2c1` [Example 7, 2-(5-Chloro-6-methoxypyridin-3-yl)-6-methoxyimidazo[1,2-a]pyridine], the concentration for half-maximal inhibition (IC50) came out at 709 nM.

Take `COc1ccc2nc(-c3ccc(N4CCNCC4)nc3)cn2c1` [Example 8, 6-Methoxy-2-(6-piperazin-1-ylpyridin-3-yl)imidazo[1,2-a]pyridine]: the IC50 came out at 8380 nM.

`COc1ccc2nc(-c3ccc(N4CCN(C(=O)OC(C)(C)C)CC4)nc3)cn2c1` [Example 9, tert-Butyl 4-[5-(6-methoxyimidazo[1,2-c]pyridin-2-yl)pyridin-2-yl]piperazine-1-carboxylate]: the IC50 turned out to be 1360 nM.

Turning to `COc1ccc2nc(-c3cnc(N4CCOCC4)nc3)cn2c1` [Example 10, 6-Methoxy-2-(2-morpholin-4-ylpyrimidin-5-yl)imidazo[1,2-a]pyridine], the IC50 was found to be 1590 nM.

For the compound `COc1ccc2nc(-c3ccc4[nH]ccc4c3)cn2c1` [Example 11, 2-(1H-Indol-5-yl)-6-methoxyimidazo[1,2-a]pyridine], the IC50 was determined as 184 nM.

For the compound `COc1ccc2nc(-c3ccc(C(N)=O)nc3)cn2c1` [Example 16, 5-(6-Methoxyimidazo[1,2-a]pyridin-2-yl)pyridine-2-carboxamide], the IC50 stood at 2310 nM.

On to `NC(=O)c1ccc(-c2cn3cc(O)ccc3n2)cn1` [Example 17, 5-(6-Hydroxyimidazo[1,2-a]pyridin-2-yl)pyridine-2-carboxamide], for which the IC50 is 2790 nM.

For the compound `O=C(OCCF)c1ccc2nc(-c3ccc(F)nc3)cn2c1` [Example 18, 2-Fluoroethyl 2-(6-fluoropyridin-3-yl)imidazo[2,1-f]pyridine-6-carboxylate], the IC50 came out at 17900 nM.

For the compound `COC(=O)c1ccc2nc(-c3ccc(N(C)C)nc3)cn2c1` [Example 19, Methyl 2-(6-dimethylaminopyridin-3-yl)imidazo[2,1-f]pyridine-6-carboxylate], the IC50 turned out to be 739 nM.

In the case of `CN(C)c1ccc(-c2cn3cc(C(=O)OCCF)ccc3n2)cn1` [Example 20, 2-Fluoroethyl 2-(6-dimethylaminopyridin-3-yl)imidazo[2,1-f]pyridine-6-carboxylate], the IC50 turned out to be 16600 nM.

Consider `CNc1ccc(-c2cn3cc(C(=O)OC)ccc3n2)cn1` [Example 21, Methyl 2-(6-methylaminopyridin-3-yl)imidazo[2,1-f]pyridine-6-carboxylate], for which the IC50 worked out at 960 nM.

`CNc1ccc(-c2cn3cc(C(=O)OCCF)ccc3n2)cn1` [Example 22, 2-Fluoroethyl 2-(6-methylaminopyridin-3-yl)imidazo[2,1-t]pyridine-6-carboxylate]: the IC50 worked out at 469 nM.
